Data published in patent US20230381170A1, “METHOD FOR TREATING ALS/FTD THROUGH DEGRADATION OF RNA REPEAT EXPANSION” (University of Florida Research Foundation, Incorporated, priority 2020, published 2023).

How the values were obtained:
r(G4C2)8 = experiment: RIBOTAC cleavage of r(G4C2)8 in vitro, FRET assay with RNase L; assay type: biochemical; details: r(G4C2)8 labeled Cy5/Cy3
Procedure: RIBOTAC Cleavage of […] in vitro: Gel Analysis. A model of r(G4C2)^exp, r(G4C2)8 was radioactively labeled at its 5′ end and purified on a denaturing 15% polyacrylamide gel as previously described (12, 57). Then, 25 nM of labeled RNA was folded by heating at 95° C. for 5 min in 1× Rnase L buffer (25 mM Tris-HCl, pH7.4, and 100 mM NaCl) and allowed to slowly cool to room temperature. To the folded RNA was added 2-Mercaptoethanol (7 mM final concentration), ATP (50 µM final concentration), and MgCl2 (10 mM final concentration). Compound was added, and the samples were incubated for 15 min at room temperature. Next, Rnase L was added to a final concentration of 25 or 50 nM, and the samples were incubated at 37° C. (1 h or overnight). Fragments were separated on a denaturing 15% polyacrylamide gel, imaged by phosphorimaging with a Typhoon FLA 9500, and quantified with BioRad's QuantityOne software. All studies were performed in duplicate.
RIBOTAC Cleavage of r(G4C2)8 in vitro: FRET Assay. A FRET assay was developed to monitor RIBOTAC-induced cleavage of r(G4C2)8 by Rnase L. This assay uses r(G4C2)8 labeled with Cy5 and Cy3, at the 5′ and 3′ end, respectively (Dharmacon). […] Fluorescence was measured on a Molecular Devices SpectraMax M5 plate reader (Cy3, Ex.: 554 nm; Em.: 568 nm; Cy5, Ex.: 649 nm, Em.: 666 nm; FRET, Ex.: 554 nm, Em.: 666 nm). […]

[1] = test system: transcripts containing short, non-pathogenic r(G4C2) repeats; experiment: Off-target RT-qPCR of genes with short r(G4C2) repeats in patient-derived LCL; assay type: cell-based, human; details: 500 nM
[2] = test system: r(G4C2)exp-containing intron 1; experiment: C9orf72 intron 1 RT-qPCR in c9ALS iPSC-derived spinal neurons; assay type: cell-based, human
Procedure: iPSCs were differentiated into spinal neuron cells using a previously the previously described direct induced motor neuron (diMNs) differentiation protocol (58) with modifications. Briefly, iPSCs were plated into Matrigel-coated 100 mm dishes (30-40% confluence). Neuroepithelial induction was performed by replacing the iPSC maintenance medium with Stage 1 medium [47.5% IMDM (Iscove's Modified Dulbecco's Medium) medium, 47.5% F12 medium, 1% NEAA (Non-Essential Amino Acid) (Life Technologies), 2% B27 (Invitrogen), 1% N2, 1% PSA (Penicillin-Streptomycin-Amphotericin), 0.2 μM LDN193189 (Stemgent), 10 μM SB431542 ([…] Technologies) and 3 μM CHIR99021 (Sigma-Aldrich)]. After daily medium changes for 6 days, cells were detached with Accutase and seeded into 6-well plates (1.5×10^6 cells/well) in 3 mL Stage 2 medium. Cells were maintained in Stage 2 medium [Stage 1 medium supplemented with 0.1 μM All-trans RA (Sigma-Aldrich) and 1 μM *SAG (Cayman Chemicals)], with daily changes, through Day 11. […]
Measuring Levels of C9orf72 and C9orf72 Variants by RT-qPCR. […] RNA was extracted as described above and the expression of C9orf72 variants was determined by RT-qPCR. […] RNA was extracted as described above and the expression of C9orf72 variants was determined by RT-qPCR.

[3] = test system: r(G4C2)exp-containing nuclear foci; experiment: RNA foci imaging (RNA-FISH) in patient-derived LCLs; assay type: cell-based, human; details: 100 nM
Procedure: Imaging RNA Foci in LCLs. RNA foci containing r(G4C2)^exp were imaged using RNA fluorescence in situ hybridization (FISH) as previously described (13). Briefly, ALS patient-derived LCLs were treated with compound or ASO as described in “Measuring poly(GP) Levels by Electrochemiluminescence”. The cells were harvested, pelleted, and washed with 1×PBS. LCLs were then fixed in 2% paraformaldehyde in 1×PBS for 15 min at room temperature and then washed three times with 1×PBS. The fixed cells were then centrifuged, washed twice with 1×PBS, and seeded into poly lysine coated, glass bottom 96-well plates (˜5×10^5 cells/well). To ensure the cells adhered to the plate, they were incubated at 37° C. for >2 h. The cells were then incubated with 70% ethanol overnight at 37° C. The next day, LCLs were washed with 1×PBS for 15 min at room temperature, and then with 1×PBS containing 0.1% (v/v) Triton X-100 for 5 min at room temperature. […] Quantification was performed in triplicate with ˜200 nuclei counted per sample. Average number of foci per nuclei was assessed for each sample and reported. Statistical analysis was measured using an unpaired t-test with Welch's correction.

CCOC(=O)C1=C(Nc2ccccc2)S/C(=C\c2ccc(OCCOCCOCCOCCNC(=O)CCC(=O)N(CCOCCOCCOc3ccc4[nH]c5c(C)c6ccncc6c(C)c5c4c3)CCOCCOCCOc3ccc4[nH]c5c(C)c6ccncc6c(C)c5c4c3)c(O)c2)C1=O [Compound 7] was tested, and the “FRET signal upon addition of compound and Rnase L” value (r(G4C2)8) was “dose dependently decreased”, the “abundance of eight transcripts with short r(G4C2) repeats” value [1] was “No decrease” and the “reduction of r(G4C2)exp-containing intron 1 abundance” value ([2]; 50 nM) was 45±11%. For the same molecule, the “reduction of r(G4C2)exp-containing intron 1 abundance” value ([2]; 500 nM) was 64±10%.

With Cc1c2ccncc2c(C)c2c1[nH]c1ccc(OCCOCCOCCNCCOCCOCCOc3ccc4[nH]c5c(C)c6ccncc6c(C)c5c4c3)cc12 [Compound 3] the “reduction of number of r(G4C2)exp-containing nuclear foci” value [3] was about 60%.
